From patent US20260055051A1, “Compound with anti-tumor activity, preparation method therefor, and use thereof” (Ocean University of China, priority 2022, published 2026) come the findings set out here.

Data set [1] deals with human lung cancer cell line A549. The data set can be described thus: In vitro tumor cell proliferation inhibition assay (SRB method), A549. The format is cell-based. The conditions noted are these: 72 hours, SRB; for IC50: mean of triplicate experiments, read-out: IC50 against A549; for inhibition at 10 µM: test compounds 10 μM, read-out: Inhibition rate on A549. The method, then: (§1) Sulforhodamine B Colorimetric Method (SRB Method) and MTT Colorimetric Method (MTT Method)
(§2) Human lung cancer cell line A549, human liver cancer cell line HepG2, human colon cancer cell line HCT116, human colon cancer cell line HT-29, human leukemia cell line K562, human cervical cancer cell line hela, and human breast cancer cell line MCF-7, all provided by the Shanghai Cell Bank, Chinese Academy of Sciences.
(§3) A549, HepG2, HCT116, HT-29, K562, hela, and MCF-7 cells were cultured respectively in 1640, DMEM, 5A, 5A, 1640, DMEM, and 1640 culture media containing 10 wt % heat-inactivated FBS (fetal bovine serum), 2 mM L-glutamine, 100 U/mL penicillin and […] streptomycin, in a cell incubator at 37° C. and 5 vol % CO2. The medium was replaced every two days. After the A549, HepG2, HCT116, HT-29, hela, and MCF-7 cells were confluent, they were digested with 0.05% (w/v) trypsin-EDTA at 37° C., passaged, and maintained in the logarithmic growth phase suitable for testing. The K562 suspension cells were passaged without digestion, and maintained in the logarithmic growth phase suitable for testing. The A549, HepG2, HCT116, HT-29, K562, hela, and MCF-7 cells in the logarithmic growth phase were inoculated to 96-well plates at 5000, 5000, 5000, 5000, 6000, 5000, 5000 per well, respectively, and cultured at 37° C. for 24 h.
(§4) Then various concentrations of test samples were added. The positive control group was doxorubicin hydrochloride (final concentration was 1 μM), the solvent control group was an equal volume of DMSO, and the blank control group was an equal volume of a culture medium, with 4 replicate wells for each concentration. After the A549, HepG2, HCT116, HT-29, hela, and MCF-7 cells were treated with the test drugs for 72 hours, the cells in each well were fixed with 50% (m/v) cold trichloroacetic acid (TCA) and stained with SRB. Then […] of Tris solution was added, and the OD value at the wavelength of 540 nm was measured using a microplate reader. For K562 cells, after 72 hours of treatment with the test drugs, […] of 5 mg/mL MTT was added, and the cells were incubated at 37° C. for 4 hours. Next, […] of a triplet solution (10% SDS, 5% isobutanol, 12 mM HCl) was added, followed by further incubation for 12 to 20 hours. The OD value at the wavelength of 570 nm was measured using a microplate reader.
(§5) The tumor cell growth inhibition rate was calculated according to the following equation: […]
(§6) in the equation, • OD540 control well is the absorbance of the control group; • OD540 dosing well is the absorbance of the test group.
(§7) IC50 values of the test drugs (calculated by GraphPad Prism 5 software) were the means of the results of triplicate experiments.
On the technique in general: The SRB assay estimates cell density from bound dye.

Data set [2] relates to human liver cancer cell line HepG2. The data set can be described thus: In vitro tumor cell proliferation inhibition assay (SRB method), HepG2. The format is cell-based. The conditions noted are these: 72 hours, SRB; for IC50: mean of triplicate experiments, read-out: IC50 against HepG2; for inhibition at 10 µM: test compounds 10 μM, read-out: Inhibition rate on HepG2. How it is done:
as §1, §2, §3, §4, §5, §6, §7

Data set [3] relates to human colon cancer cell line HCT116. The data set can be described thus: In vitro tumor cell proliferation inhibition assay (SRB method), HCT116. The conditions noted are these: SRB; for IC50: HCT-116, 72 hours, mean of triplicate experiments, read-out: IC50 against HCT116; for inhibition at 10 µM: HCT-116, test compounds 10 μM, 72 hours, read-out: Inhibition rate on HCT116. The format is cell-based. How it is done: as §1, §2, §3, §4, §5, §6, §7

For data set [4], the system named is human colon cancer cell line HT-29. The data set can be described thus: In vitro tumor cell proliferation inhibition assay (SRB method), HT-29. Format: cell-based. As to conditions: 72 hours, SRB, mean of triplicate experiments, read-out: IC50 against HT-29. How it is done: as §1, §2, §3, §4, §5, §6, §7
Data set [5] relates to human leukemia cell line K562. The data set can be described thus: In vitro tumor cell proliferation inhibition assay (MTT method), K562. Format: cell-based. The conditions noted are these: 72 hours, mean of triplicate experiments, read-out: IC50 against K562. How it is done: as §1, §2, §3, §4, §5, §6, §7
On the technique in general: Formazan colour is commonly taken as a measure of viable cells.

Data set [6] has as its system human cervical cancer cell line hela. The data set can be described thus: In vitro tumor cell proliferation inhibition assay (SRB method), hela. The conditions noted are these: 72 hours, SRB, mean of triplicate experiments, read-out: IC50 against hela. Format: cell-based. How it is done:
as §1, §2, §3, §4, §5, §6, §7

The test system of data set [7] is human breast cancer cell line MCF-7. The data set can be described thus: In vitro tumor cell proliferation inhibition assay (SRB method), MCF-7. Format: cell-based. The conditions noted are these: MCF7, 72 hours, SRB, mean of triplicate experiments, read-out: IC50 against MCF-7. How it is done:
as §1, §2, §3, §4, §5, §6, §7

The next data set has as its system A549 cells. The data set can be described thus: A549 cell-BALB/c nude mouse subcutaneous tumor transplantation experiment. Format: in vivo, BALB/c nude mice. As to conditions: A549 model, test compound 0.5 mg/mL at 10 mL/kg tail vein, 15 times, 6 times; for average tumor volume at the end of the experiment: 5 times a week, 5-fu 20 mg/kg twice a week; for inhibitory effect (inhibition rate of average tumor weight, FIG. 6): 5-fu 20 mg/kg. The method, then: (§8) BALB/c nude mice were subcutaneously inoculated with A549, HCT116 and HT-29 cells to establish tumor transplantation models. • Solvent Control Group: 2% DMSO+normal saline+sodium carbonate (the molar ratio of the compound to sodium carbonate is 1:2) • 5-fluorouracil control group: 5-fluorouracil injection (20 mg/kg);
(§9) Test compound group: 1 mg of a test compound was fully dissolved in […] DMSO, and then diluted with normal saline to 0.5 mg/mL. 2 mL was used each time, freshly prepared before use on the same day.
(§10) Eight mice were in each group.
(§11) The solvent control group and the test compound group were administered at a dose of 10 mL/kg via tail vein injection (the dose for each administration was calculated based on the body weight on that day), 5 times a week, for a total of 15 times. The animals were euthanized after the last administration.
(§12) The 5-fluorouracil control group was administered twice a week for a total of 6 times.
(§13) The body weight and tumor diameter were measured twice a week during the administration period. Tumors and the spleen were removed and weighed after euthanasia. The tumor volume, relative tumor volume (RTV), relative tumor growth rate (T/C %), tumor volume inhibition rate (IRTV%), and tumor weight inhibition rate (IRTW%) were calculated. Data for animals that died accidentally were only listed but excluded from statistical analysis.

The subject of the next data set is HT-29 cells. The data set can be described thus: HT-29 cell-BALB/c nude mouse subcutaneous tumor transplantation experiment. The conditions noted are these: HT-29 model, test compound 0.5 mg/mL at 10 mL/kg tail vein, 15 times, 6 times; for average tumor volume at the end of the experiment: 5 times a week, 5-fu 20 mg/kg twice a week; for inhibitory effect (inhibition rate of average tumor weight, FIG. 6): 5-fu 20 mg/kg. The format is in vivo, BALB/c nude mice. How it is done:
as §8, §9, §10, §11, §12, §13

Data set [8] has as its system A549, HepG2, HCT116, HT-29, K562, hela, and MCF-7 cell lines. The data set can be described thus: In vitro tumor cell proliferation inhibition assay, summary over all 7 types of cells. The conditions noted are these: Homo sapiens, upper bound over A549, HepG2, HCT116, HT-29, K562, hela, MCF-7. The format is cell-based. How it is done: as §1, §2, §3, §4, §5, §6, §7

Another data set concerns HCT116 cells. The data set can be described thus: HCT116 cell-BALB/c nude mouse subcutaneous tumor transplantation experiment. The conditions noted are these: HCT116 model, test compound 0.5 mg/mL at 10 mL/kg tail vein, 15 times, 6 times; for inhibitory effect (inhibition rate of average tumor weight, FIG. 6): 5-fu 20 mg/kg; for average tumor volume at the end of the experiment: 5 times a week, 5-fu 20 mg/kg twice a week. The format is in vivo, BALB/c nude mice. How it is done: as §8, §9, §10, §11, §12, §13

Data set [9] is described as follows: Body weight of tumor-transplanted mice during administration. The conditions noted are these: A549, HCT116 and HT-29 transplanted mice, during administration period. Format: in vivo. The method, then:
as §8, §9, §10, §11, §12, §13

Usually IC50 stands for the point on the concentration scale where inhibition reaches its midpoint. As a reminder, the inhibition is the change of the read-out against control, counted positive when it falls. In the case of `CC(=O)NCc1c(C)cc(O)c(C)c1C` [Compound I-6, N-(2,3,6-trimethyl-4-hydroxybenzyl) acetamide], the IC50 in data set [1] turned out to be 5.95 µM; in [2] it was 8.36 µM; in data set [3], 7.36 µM; in data set [4], 35.4 µM; in data set [5], 9.74 µM; in data set [6], 8.86 µM. Besides, the IC50 in data set [7] was 6.98 µM; in [8] it was below 35.5 µM. The values for the inhibition at 10 µM in data set [1], in data set [2] and in [3] were 94.9%, 81.1% and 96.6%, respectively. The “average tumor volume at the end of the experiment” value (“average tumor volume at the end” for short) was determined as 492.12 mm^3 in the data set on A549 cells and 559.37 mm^3 in the data set with HT-29 cells. Further, the results for the “inhibitory effect (inhibition rate of average tumor weight, FIG. 6)” value (from here on “inhibitory effect”) with A549 cells and in the data set on HT-29 cells were 35.19% and 32.07%, respectively.

Consider `C=CC(=O)NCc1c(O)c(O)c(O)c(CNC(=O)C=C)c1C(=O)O` [Compound I-1, N-(2,3,4-trihydroxy-5-acrylamidomethyl-6-carboxybenzyl) acrylamide], for which the IC50 was 2.73 µM in [1]; 8.31 µM in [2]; 4.77 µM in data set [3]; 16.6 µM in data set [4]; above 50 µM in [5]; 23.8 µM in [6]. Further, the IC50 in data set [7] is 4.6 µM. Also, the values for the inhibition at 10 µM in data set [1], in [2] and in [3] were 89.3%, 57.5% and 92.3%, respectively. Also, in the data set with A549 cells, the “average tumor volume at the end” value turned out to be 539.48 mm^3. Besides, the “inhibitory effect” value is 33.25% in the data set with A549 cells and 35.13% in the data set with HCT116 cells.

In the case of `COc1c(CNC(=O)CCl)c(C)cc(C)c1CNC(=O)CCl` [Compound I-4, N-(2-methoxy-3-chloroacetamidomethyl-4,6-dimethylbenzyl) chloroacetamide], the half-inhibitory concentration (IC50) amounted to 6.57 µM in [1]; 7.9 µM in data set [2]; 3.96 µM in data set [3]; 17.6 µM in data set [4]; 9.36 µM in data set [5]; 9.38 µM in [6]. Moreover, the values for the IC50 in data set [7] and in [8] were 5.75 µM and below 35.5 µM, respectively. Also, the inhibition at 10 µM in [1] was 69%; in data set [2], 82.9%; in data set [3], 69.3%. Besides, the “inhibitory effect” value in the data set on A549 cells is recorded as 22.05%; in the data set with HCT116 cells it was 29.86%; in the data set with HT-29 cells, 23.90%. Also, in the data set with HCT116 cells, the “average tumor volume at the end” value is listed as 574.36 mm^3.

For `Cc1cc(O)c(CNC(=O)CCl)c(C)c1Cl` [Compound I-7, N-(2,4-dimethyl-3-chloro-6-hydroxybenzyl) chloroacetamide], the IC50 in [1] turned out to be 8.11 µM; in data set [2] it was 8.61 µM; in [3], 7.44 µM; in [4], 28.9 µM; in [5] it was 12.7 µM; in data set [6], 9.68 µM. In addition, the IC50 in data set [7] is 5.75 µM; in data set [8], below 35.5 µM. For the same compound, the inhibition at 10 µM in [1] came out at 55%; in data set [2] it was 95.8%; in data set [3], 95.1%. For the same compound, the figures for the “average tumor volume at the end” value in the data set with A549 cells and in the data set on HCT116 cells were 559.37 mm^3 and 624.48 mm^3, respectively. For the same compound, the results for the “inhibitory effect” value in the data set on A549 cells and in the data set on HT-29 cells were 33.56% and 26.52%, respectively.

In the case of `O=c1[nH]cc(F)c(=O)[nH]1` [Compound 5-fu, 5-fluorouracil, reference compound], the “average tumor volume at the end” value turned out to be 322.03 mm^3 in the data set on A549 cells, 599.83 mm^3 in the data set with HCT116 cells and 658.02 mm^3 in the data set with HT-29 cells. Also, the results for the “inhibitory effect” value in the data set with A549 cells, in the data set on HCT116 cells and in the data set with HT-29 cells were 43.11%, 44.81% and 44.60%, respectively. The “body weight compared to the solvent control (FIG. 2)” value in [9] is recorded as “significant weight loss”.
